Measurements published in US6046231A, “Use of 4'-bromoflavone in a cancer chemopreventative composition and method” (The Board of Trustees of the University of Illinois, priority 1999, dated 2000).
Like-named read-outs stand apart in the source and are kept apart here.

Experiments:
Hepa 1c1c7 cells = assay: Hepa 1c1c7 cell viability (cytotoxicity); format: cell-based, murine; conditions: for IC50: read-out: IC50, concentration for 50% inhibition of cell viability
[1] = system: QR ARE-CAT construct, HepG2 cells; assay: CAT expression in HepG2 cells transfected with QR ARE-CAT; format: cell-based, human cells; rat QR gene; conditions: 10 μM, 48 h; p<0.0001; listed as 4'-BF
Procedure: Transcient Transfection Gene Expression Assay. Cultured HepG2 human hepatoma cells were transfected with three plasmid constructs (PDTD-1697CAT, XRE-CAT, ARE-CAT) containing various portions of the 5'-region of the QR gene fused to the CAT gene using the calcium phosphate precipitation method (J. Sambrook et al., Molecular cloning: A Laboratory Handbook, Ed. Chris Nolan, CHS Laboratory Press, 1989). After 4 hours of transfection, the cells were treated with 10% glycerol for 3 minutes and rinsed with PBS and switched to MEM, containing 100 units/ml penicillin G sodium, 100 units/ml streptomycin sulfate, nonessential amino acids, and 1 mM sodium pyruvate (Life Technologies Inc.) supplemented with 10% fetal bovine serum for 12-16 hours recovery. Then, test agents were added to the cells. After 48 hours of treatment with the test agents, cells were harvested with lysis buffer (Boehringer Mannheim Biochemical) and CAT protein expressions were assessed using a CAT ELISA kit (Boehringer Mannheim Biochemical). CAT enzyme expression was normalized for the protein content of each sample. All data were expressed as mean +/- SD. Means were compared using Student's t test with n=4.
This was further investigated in transient transfection experiments wherein human hepatoma cells were transfected with DNA constructs containing various portions of the 5' upstream promoter region of the QR gene linked to the CAT reporter gene by using the calcium phosphate precipitation method. Construct pDTD-1097CAT contains elements of the rat QR gene connected to the CAT construct gene. […]
In particular, FIG. 1 illustrates quantitation of CAT expression in HepG2 cells transfected with QR-CAT constructs. […] CAT expression (ng CAT/mg protein) was determined using a CAT ELISA, and the ratio of CAT expression between treated and control cells was calculated (ratio=treated/control).

[2] = system: MCF-7 cells (B[α]P-DNA adducts); assay: Binding of metabolically activated [3H]B[α]P to DNA of cultured MCF-7 cells; format: cell-based; conditions: Homo sapiens, MCF7, read-out: IC50, formation of B[α]P-DNA adducts, MCF-7
Procedure: Effect of 4'-BF on the Binding of Metabolically Activated [^3 H]B[α]P to DNA of Cultured Cells. HepG2 cells or MCF-7 cells were plated at a density of 1×10^6 cells/dish in 6 cm Petri dishes and allowed to incubate for 18 hours. Fresh media containing test samples were added to the cells 2 hours prior to the addition of 1 μM [^3 H]B[α]P (10 Ci/mmol) The test compound and tritiated carcinogen then were incubated for 6 hours. Following incubation, genomic DNA was extracted by the method described by Sharma et al., with minor modifications. Briefly, the cells were washed three times with PBS and harvested by incubation with 0.5 ml of proteinase K (100 μg/ml) in 0.2 M Tris-0.1 M EDTA (pH 8.5) for 10 min at 37° C. The cells were gently scraped from the dishes, transferred to 50 μl of 10% SDS solution, and incubated for 3 hours at 55° C. […] An aliquot of harvested DNA was used for measuring the relative absorbencies at 260 and 280 nm (A2360 nm/A2380 nm=1.7-1.9), and the DNA content was determined by absorbance at 260 nm (1 A2360 nm unit=50 μg). The remaining sample was used for the determination of radioactivity. All experiments were performed in triplicate; percentage inhibition of carcinogen-DNA binding mediated by test samples was calculated as follows: % inhibition=[1-(dpm per μg DNA test cells/dpm per μg DNA control cells)]×100.

[3] = system: Salmonella typhimurium strain TM677; assay: Antimutagenic assay, DMBA-induced mutagenesis; format: cell-based; conditions: S. typhimurium TM677; listed as 4'-BF
Procedure: A dose and time dependent induction of two major detoxification isoforms of GST (α form and μ form) mediated by 4'-BF has been studied in H4IIE rat hepatoma cells. In order to determine a possible mechanism of induction, the QR mRNA expression was tested using a RT-PCR technique and the induction patterns using HepG2 cells transfected with QR-chloramphenical acetyltransferase plasmid constructs containing various portions of 5'-region of the QR gene were analyzed. The antimutagenic activity of 4'-BF was tested in an antimutagenic assay against DMBA-induced mutagenesis with Salmonella typhimurium strain TM677. The chemopreventive efficacy of 4'-BF also was evaluated in a DMBA-induced mammary tumor carcinogenesis model in Sprague Dawley rats.

## O=c1cc(-c2ccc(Br)cc2)oc2ccccc12 [4'-Bromoflavone]
Hepa 1c1c7 cells; Hepa 1c1c7 cells
  IC50: ≥ 166 µM
Hepa 1c1c7 cells; Mus musculus, Hepa-1c1c7, Hepa 1c1c7 cells
  IC50: > 166 µM
Hepa 1c1c7 cells; compared to sulforaphane
  times less toxic than sulforaphane: about 15 times
[1]
  CAT expression, QR ARE-CAT: significantly (P<0.0001, students t test with n=4) induced
[2]
  IC50: ~1700 nM
[3]
  inhibition of DMBA-induced mutagenesis: strongly inhibited
